# Data reported in ChEMBL document CHEMBL3526037, “Evaluation of the relationship between sex, polymorphisms in CYP2C8 and CYP2C9, and pharmacokinetics of angiotensin receptor blockers” (Drug Metab Dispos, 2013).
# Tests used:
# Format in all cases: ADME, organism-based
# [1] = Tmax in women plasma at 25 to 32 mg by LC/MS/MS analysis; details: female, human
# [2] = Clearance in men plasma at 25 to 32 mg by LC/MS/MS analysis; details: male, human
# [3] = Clearance in women plasma at 25 to 32 mg by LC/MS/MS analysis; details: female, human
# [4] = AUC in men plasma at 25 to 32 mg by LC/MS/MS analysis; details: male, human
# [5] = AUC in women plasma at 25 to 32 mg by LC/MS/MS analysis; details: female, human
# [6] = Cmax in men plasma at 25 to 32 mg by LC/MS/MS analysis; details: male, human
# [7] = Cmax in women plasma at 25 to 32 mg by LC/MS/MS analysis; details: female, human
# [8] = Half life in men plasma at 25 to 32 mg by LC/MS/MS analysis; details: male, human
# [9] = Half life in women plasma at 25 to 32 mg by LC/MS/MS analysis; details: female, human
# [10] = Tmax in men plasma at 25 to 32 mg by LC/MS/MS analysis; details: male, human
# [11] = AUC in human plasma expressing CYP2C8*1/*1 polymorphism at 25 to 32 mg by LC/MS/MS analysis
# [12] = Cmax in human plasma expressing CYP2C8*1/*1 polymorphism at 25 to 32 mg by LC/MS/MS analysis
# [13] = Half life in human plasma expressing CYP2C8*1/*1 polymorphism at 25 to 32 mg by LC/MS/MS analysis
# [14] = Tmax in human plasma expressing CYP2C8*1/*1 polymorphism at 25 to 32 mg by LC/MS/MS analysis
# [15] = Clearance in human plasma expressing CYP2C8*1/*1 polymorphism at 25 to 32 mg by LC/MS/MS analysis
# [16] = AUC in human plasma expressing CYP2C8*2 allele carrier polymorphism at 25 to 32 mg by LC/MS/MS analysis
# [17] = Cmax in human plasma expressing CYP2C8*2 allele carrier polymorphism at 25 to 32 mg by LC/MS/MS analysis
# [18] = Half life in human plasma expressing CYP2C8*2 allele carrier polymorphism at 25 to 32 mg by LC/MS/MS analysis
# [19] = Tmax in human plasma expressing CYP2C8*2 allele carrier polymorphism at 25 to 32 mg by LC/MS/MS analysis
# [20] = Clearance in human plasma expressing CYP2C8*2 allele carrier polymorphism at 25 to 32 mg by LC/MS/MS analysis
# [21] = AUC in human plasma expressing CYP2C8*3 allele carrier polymorphism at 25 to 32 mg by LC/MS/MS analysis
# [22] = Cmax in human plasma expressing CYP2C8*3 allele carrier polymorphism at 25 to 32 mg by LC/MS/MS analysis
# [23] = Half life in human plasma expressing CYP2C8*3 allele carrier polymorphism at 25 to 32 mg by LC/MS/MS analysis
# [24] = Tmax in human plasma expressing CYP2C8*3 allele carrier polymorphism at 25 to 32 mg by LC/MS/MS analysis
# [25] = Clearance in human plasma expressing CYP2C8*3 allele carrier polymorphism at 25 to 32 mg by LC/MS/MS analysis
# [26] = AUC in human plasma expressing CYP2C8*4 allele carrier polymorphism at 25 to 32 mg by LC/MS/MS analysis
# [27] = Cmax in human plasma expressing CYP2C8*4 allele carrier polymorphism at 25 to 32 mg by LC/MS/MS analysis
# [28] = Half life in human plasma expressing CYP2C8*4 allele carrier polymorphism at 25 to 32 mg by LC/MS/MS analysis
# [29] = Tmax in human plasma expressing CYP2C8*4 allele carrier polymorphism at 25 to 32 mg by LC/MS/MS analysis
# [30] = Clearance in human plasma expressing CYP2C8*4 allele carrier polymorphism at 25 to 32 mg by LC/MS/MS analysis
# [31] = AUC in human plasma expressing CYP2C9*1/*1 polymorphism at 25 to 32 mg by LC/MS/MS analysis
# [32] = Cmax in human plasma expressing CYP2C9*1/*1 polymorphism at 25 to 32 mg by LC/MS/MS analysis
# [33] = Half life in human plasma expressing CYP2C9*1/*1 polymorphism at 25 to 32 mg by LC/MS/MS analysis
# [34] = Tmax in human plasma expressing CYP2C9*1/*1 polymorphism at 25 to 32 mg by LC/MS/MS analysis
# [35] = Clearance in human plasma expressing CYP2C9*1/*1 polymorphism at 25 to 32 mg by LC/MS/MS analysis
# [36] = AUC in human plasma expressing CYP2C9*2 allele carrier polymorphism at 25 to 32 mg by LC/MS/MS analysis
# [37] = Cmax in human plasma expressing CYP2C9*2 allele carrier polymorphism at 25 to 32 mg by LC/MS/MS analysis
# [38] = Half life in human plasma expressing CYP2C9*2 allele carrier polymorphism at 25 to 32 mg by LC/MS/MS analysis
# [39] = Tmax in human plasma expressing CYP2C9*2 allele carrier polymorphism at 25 to 32 mg by LC/MS/MS analysis
# [40] = Clearance in human plasma expressing CYP2C9*2 allele carrier polymorphism at 25 to 32 mg by LC/MS/MS analysis
# [41] = AUC in human plasma expressing CYP2C9*3 allele carrier polymorphism at 25 to 32 mg by LC/MS/MS analysis
# [42] = Cmax in human plasma expressing CYP2C9*3 allele carrier polymorphism at 25 to 32 mg by LC/MS/MS analysis
# [43] = Half life in human plasma expressing CYP2C9*3 allele carrier polymorphism at 25 to 32 mg by LC/MS/MS analysis
# [44] = Tmax in human plasma expressing CYP2C9*3 allele carrier polymorphism at 25 to 32 mg by LC/MS/MS analysis
# [45] = Clearance in human plasma expressing CYP2C9*3 allele carrier polymorphism at 25 to 32 mg by LC/MS/MS analysis
# [46] = AUC in human plasma expressing CYP2C8*1/*1 polymorphism treated with losartan at 50 mg by LC/MS/MS analysis
# [47] = Cmax in human plasma expressing CYP2C8*1/*1 polymorphism treated with losartan at 50 mg by LC/MS/MS analysis; set-up: dose 50 mg
# [48] = AUC in men plasma treated with losartan at 50 mg by LC/MS/MS analysis; details: male, human
# [49] = AUC in women plasma treated with losartan at 50 mg by LC/MS/MS analysis; details: female, human
# [50] = Cmax in men plasma treated with losartan at 50 mg by LC/MS/MS analysis; set-up: dose 50 mg; details: male, human
# [51] = Cmax in women plasma treated with losartan at 50 mg by LC/MS/MS analysis; set-up: dose 50 mg; details: female, human
# [52] = Half life in men plasma treated with losartan at 50 mg by LC/MS/MS analysis; details: male, human
# [53] = Half life in women plasma treated with losartan at 50 mg by LC/MS/MS analysis; details: female, human
# [54] = Tmax in human plasma expressing CYP2C8*1/*1 polymorphism treated with losartan at 50 mg by LC/MS/MS analysis
# [55] = AUC in human plasma expressing CYP2C8*3 allele carrier polymorphism treated with losartan at 50 mg by LC/MS/MS analysis
# [56] = Cmax in human plasma expressing CYP2C8*3 allele carrier polymorphism treated with losartan at 50 mg by LC/MS/MS analysis; set-up: dose 50 mg
# [57] = Half life in human plasma expressing CYP2C8*3 allele carrier polymorphism treated with losartan at 50 mg by LC/MS/MS analysis
# [58] = Tmax in human plasma expressing CYP2C8*3 allele carrier polymorphism treated with losartan at 50 mg by LC/MS/MS analysis
# [59] = AUC in human plasma expressing CYP2C8*4 allele carrier polymorphism treated with losartan at 50 mg by LC/MS/MS analysis
# [60] = Cmax in human plasma expressing CYP2C8*4 allele carrier polymorphism treated with losartan at 50 mg by LC/MS/MS analysis; set-up: dose 50 mg
# [61] = Half life in human plasma expressing CYP2C8*4 allele carrier polymorphism treated with losartan at 50 mg by LC/MS/MS analysis
# [62] = Tmax in human plasma expressing CYP2C8*4 allele carrier polymorphism treated with losartan at 50 mg by LC/MS/MS analysis
# [63] = AUC in human plasma expressing CYP2C9*1/*1 polymorphism treated with losartan at 50 mg by LC/MS/MS analysis
# [64] = Cmax in human plasma expressing CYP2C9*1/*1 polymorphism treated with losartan at 50 mg by LC/MS/MS analysis; set-up: dose 50 mg
# [65] = Half life in human plasma expressing CYP2C9*1/*1 polymorphism treated with losartan at 50 mg by LC/MS/MS analysis
# [66] = Tmax in men plasma treated with losartan at 50 mg by LC/MS/MS analysis; details: male, human
# [67] = Tmax in women plasma treated with losartan at 50 mg by LC/MS/MS analysis; details: female, human
# [68] = Half life in human plasma expressing CYP2C8*1/*1 polymorphism treated with losartan at 50 mg by LC/MS/MS analysis
# [69] = Tmax in human plasma expressing CYP2C9*1/*1 polymorphism treated with losartan at 50 mg by LC/MS/MS analysis
# [70] = AUC in human plasma expressing CYP2C9*2 allele carrier polymorphism treated with losartan at 50 mg by LC/MS/MS analysis
# [71] = Cmax in human plasma expressing CYP2C9*2 allele carrier polymorphism treated with losartan at 50 mg by LC/MS/MS analysis; set-up: dose 50 mg
# [72] = Half life in human plasma expressing CYP2C9*2 allele carrier polymorphism treated with losartan at 50 mg by LC/MS/MS analysis
# [73] = Tmax in human plasma expressing CYP2C9*2 allele carrier polymorphism treated with losartan at 50 mg by LC/MS/MS analysis
# [74] = AUC in human plasma expressing CYP2C9*3 allele carrier polymorphism treated with losartan at 50 mg by LC/MS/MS analysis
# [75] = Cmax in human plasma expressing CYP2C9*3 allele carrier polymorphism treated with losartan at 50 mg by LC/MS/MS analysis; set-up: dose 50 mg
# [76] = Half life in human plasma expressing CYP2C9*3 allele carrier polymorphism treated with losartan at 50 mg by LC/MS/MS analysis
# [77] = Tmax in human plasma expressing CYP2C9*3 allele carrier polymorphism treated with losartan at 50 mg by LC/MS/MS analysis
structure (smiles),measurement,setting,value
CCOc1nc2cccc(C(=O)O)c2n1Cc1ccc(-c2ccccc2-c2nnn[nH]2)cc1,Tmax,[1],4.9 h
same,clearance,[2],2.33 mL/min/kg
same,clearance,[3],2.5 mL/min/kg
same,AUC,[4],3260 ng·h/mL
same,AUC,[5],3810 ng·h/mL
same,Cmax,[6],216 ng/mL
same,Cmax,[7],260 ng/mL
same,half-life,[8],11.3 h
same,half-life,[9],12.1 h
same,Tmax,[10],5.1 h
same,AUC,[11],3510 ng·h/mL
same,Cmax,[12],242 ng/mL
same,half-life,[13],11.7 h
same,Tmax,[14],5.2 h
same,clearance,[15],2.5 mL/min/kg
same,AUC,[16],3580 ng·h/mL
same,Cmax,[17],289 ng/mL
same,half-life,[18],10.7 h
same,Tmax,[19],3.4 h
same,clearance,[20],2.5 mL/min/kg
same,AUC,[21],3450 ng·h/mL
same,Cmax,[22],214 ng/mL
same,half-life,[23],12 h
same,Tmax,[24],5.1 h
same,clearance,[25],2.67 mL/min/kg
same,AUC,[26],4130 ng·h/mL
same,Cmax,[27],287 ng/mL
same,half-life,[28],11.2 h
same,Tmax,[29],4.1 h
same,clearance,[30],2.17 mL/min/kg
same,AUC,[31],3590 ng·h/mL
same,Cmax,[32],258 ng/mL
same,half-life,[33],10.9 h
same,Tmax,[34],5.1 h
same,clearance,[35],2.33 mL/min/kg
same,AUC,[36],3450 ng·h/mL
same,Cmax,[37],217 ng/mL
same,half-life,[38],12.8 h
same,Tmax,[39],4.8 h
same,clearance,[40],2.5 mL/min/kg
same,AUC,[41],3630 ng·h/mL
same,Cmax,[42],230 ng/mL
same,half-life,[43],12.1 h
same,Tmax,[44],5 h
same,clearance,[45],2.5 mL/min/kg
CCCCc1nc(Cl)c(C(=O)O)n1Cc1ccc(-c2ccccc2-c2nn[nH]n2)cc1 [CARBOXYLIC ACID METABOLITE],AUC,[46],2330 ng·h/mL
same,Cmax,[47],249 ng/mL
same,AUC,[48],1810 ng·h/mL
same,AUC,[49],2580 ng·h/mL
same,Cmax,[50],209 ng/mL
same,Cmax,[51],301 ng/mL
same,half-life,[52],4.9 h
same,half-life,[53],4.8 h
same,Tmax,[54],3.9 h
same,AUC,[55],1500 ng·h/mL
same,Cmax,[56],196 ng/mL
same,half-life,[57],5.1 h
same,Tmax,[58],3.7 h
same,AUC,[59],2270 ng·h/mL
same,Cmax,[60],382 ng/mL
same,half-life,[61],4.6 h
same,Tmax,[62],2.8 h
same,AUC,[63],2140 ng·h/mL
same,Cmax,[64],292 ng/mL
same,half-life,[65],4.6 h
same,Tmax,[66],3.7 h
same,Tmax,[67],3.7 h
same,half-life,[68],4.8 h
same,Tmax,[69],3.7 h
same,AUC,[70],1770 ng·h/mL
same,Cmax,[71],224 ng/mL
same,half-life,[72],4.9 h
same,Tmax,[73],3.5 h
same,AUC,[74],2860 ng·h/mL
same,Cmax,[75],154 ng/mL
same,half-life,[76],5.7 h
same,Tmax,[77],4.3 h
